The source of these data is publication PMC9786614, “Nerve Targeting via Myelin Protein Zero and the Impact of Dimerization on Binding Affinity” (Molecules, 2022).

As usually defined, the Kd is the constant that tells how readily two partners part at equilibrium. Usually fraction unbound stands for free concentration divided by total concentration. Read a high fraction unbound as weak binding. As a reminder, the logP is the decadic logarithm of the partition coefficient of the neutral form, usually between octanol and water.

For one data set, the target named is T1, myelin protein zero (P0) (Rattus norvegicus, UniProt P06907).
T1 construct: RT4-D12 Schwannoma cells were selected for in vitro experiments based on their origin and their specific P0-expressing properties; endogenous in cells; host or cells: RT4-D12 Schwannoma cells
T1 sequence (P06907 30-248): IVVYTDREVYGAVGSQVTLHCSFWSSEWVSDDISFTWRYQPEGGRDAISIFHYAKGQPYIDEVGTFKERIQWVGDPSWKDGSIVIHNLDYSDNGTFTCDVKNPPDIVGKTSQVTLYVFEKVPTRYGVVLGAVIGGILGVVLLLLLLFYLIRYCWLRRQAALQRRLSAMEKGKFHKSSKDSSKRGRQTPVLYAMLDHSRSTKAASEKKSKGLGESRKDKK
Kind of data set: Saturation binding by flow cytometry on P0-expressing Schwannoma cells. As for the experimental part:
RT4-D12 Schwannoma cells were selected for in vitro experiments based on their origin and their specific P0-expressing properties.
All chemicals were received from Actu-All Chemical (Oss, The Netherlands), Sigma Aldrich (St. Louis, MO, USA), Tokyo Chemical Industry (Tokyo, Japan), Biosolve BV (Valkenswaard, The Netherlands), VWR Chemicals (Solon, OH, USA) and used without further purification. DMF and DMSO were dried over four Å molecular sieves at least for 24 h prior to use. Preparative high-pressure liquid chromatography (prep-HPLC) was performed on a Waters HPLC system (Waters Chromatography B.V., Etten-Leur, The Netherlands) using a 2545 quaternary gradient module pump and a 2489 UV detector. Dr. Maisch ReproSil-Pur 120 C18-AQ 10 μM (250 mm × 20 mm) column (Dr. Maisch HPLC GmbH, Ammerbuch-Entringen, Germany) was applied operating flow rate of 12 mL/min. HPLC analysis was carried out on Waters Alliance 2690 using a Waters symmetry C18 column (2.1 × 150 mm) with a gradient of 0.1% TFA in H2O/MeCN 95:5 to 0.1% TFA in H2O/MeCN 5:95 in 17 min (0.3 mL/min). Mass spectrometry was performed on a Microflex LT/SH MALDI-TOF mass spectrometer (Bruker, Billerica, MA, USA). Lyophilization was performed with a VaCo 2-II lyophilizer (Zirbus technology GmbH, Bad Grund (Harz), Germany). Absorption spectrometry was performed using a UV1280 UV–vis spectrometer (Shimadzu, Kyoto, Japan), and fluorescence spectrometry was performed using an LS55 (Perkin Elmer, Waltham, MA, USA). The fluorescence spectra at different temperatures were measured on an Agilent Cary Eclipse (Agilent Cary Eclipse, Santa Clara, CA, USA). NMR spectra were measured on a Bruker Avance 300 (Bruker, Billerica, MA, USA) operating at 300 MHz for 1 H and 75.00 MHz for 13 C, using the residual solvents (CDCl3 and DMSO-d6) as internal references, and on a Bruker Advance III spectrometer operating at 600 MHz for 1H and equipped with a 2.5 mm PH SEI probe (Bruker, Billerica, MA, USA). For photostability, a prototype D-Light P surgical laparoscope (KARL STORZ, Tuttlingen, Germany) was used. Fluorescence confocal imaging was performed using a SP8 WLL confocal microscope (Leica Microsystems, Wetzlar, Germany). Obtained images were analyzed using Leica Confocal Software (Leica Microsystems). Mean fluorescence intensity values per sample were measured using a LSRII flow cytometer (BD Biosciences, Franklin Lakes, NJ, USA) with APC-A settings (635 nm laser and 750 nm long-pass filter). The binding constant (KD) of the normalized geometric means were fitted with equations in the Prism 5 software (GraphPad, San Diego, CA, USA). Statistical evaluation (Student’s t-test) for all properties was performed in the Prism 5 software. […]
Flow cytometric analysis was performed using RT4-D12 Schwannoma cells after incubation with either Cy5-P0_101–125 or Cy5-(P0_101–125)2. […] Cells were gated on Forward Scatter and Side Scatter, and a minimum of 10,000 viable cells were analyzed per sample. […]
(§1) For evaluation of the differences in signal intensity per concentration between Cy5-P0_101–125 and Cy5-(P0_101–125)2 (5–1000 nM), the mean signal intensity of Cy5-P0_101–125 at 1000nM was set at 100%, and intensities measured at other tracer concentrations or for Cy5-(P0_101–125)2 were calculated as % increase or decrease from this point. The KD values of the evaluated peptides were calculated using the “Binding-Saturation, One site—Total” nonlinear regression equation, as described previously.
In general terms: In flow cytometry, cells or beads pass a laser one at a time.

For the next data set, the system named is serum protein. Nature of the data set: Serum protein binding. The class given is in vitro ADME. The following applies: serum; protocol modified from Hensbergen et al. [34]; mean ± spread. As for the experimental part:
(§2) The molar extinction coefficient (ε), quantum yield (QY), brightness, lipophilicity, serum protein binding, photo- and chemical stability, and stacking behavior were determined according to a slight modification of the protocol put forward by Hensbergen et al.. Sulfonate-(SO3)Cy5(SO3)-COOH [27] was measured and used as a control for QY.

In a further data set the test system is RT4-D12 Schwannoma cells. Nature of the data set: Flow cytometry quantification of fluorescence signal intensity per tracer concentration. In kind it is cell-based. The protocol:
Flow cytometric analysis was performed using RT4-D12 Schwannoma cells after incubation with either Cy5-P0_101–125 or Cy5-(P0_101–125)2. For saturation binding experiments, Cy5-labelled peptides were added to the cell samples in a range of 0–2000 nM in 50 µL of 0.1% bovine serum albumin (BSA) in PBS, as previously described. After 1 h of incubation at 4 °C, the cells were washed two times with 300 µL of 0.1% BSA in PBS and re-suspended in 300 µL of 0.1% BSA. Cells were gated on Forward Scatter and Side Scatter, and a minimum of 10,000 viable cells were analyzed per sample. All experiments were performed in triplicate.
as §1

Data set [1] is described as follows: Photostability (photobleaching). The class given is physicochemical. The following applies: illumination in 5 min cycles, 30 min in total, Storz D-Light P system at 50 mm, fluorescence read-out. As for the experimental part:
as §2
For photostability measurements, the cuvettes were sealed and illuminated for 5 min (30 min in total) by a modified Storz D-Light P fluorescence imaging system at a distance of 50 mm in a dark environment. After each illumination cycle, the fluorescence intensity was determined.

Test in data set [2]: not given
This is another data set of the same source.

Test in data set [3]: not given
This is another data set of the same source.

Test in data set [4]: not given
This is another data set of the same source.

The nature of a further data set: Lipophilicity logP(o/w). In kind it is physicochemical. Particulars: octanol/water; protocol modified from Hensbergen et al. [34]; mean ± spread. As for the experimental part:
as §2

Starred links: 1 amine or outer side, 2 acyl side, 3 side chain; linkers in the order of their positions; H or OH if unused. Positions of bridges follow the written chain, without caps; N, C: chain ends. Chains are numbered I, II in the order given. X1 = CC1(C)C(/C=C/C=C/C=C2/N(CCCCCC(=O)NCCN3C(=O)CC([*:1])C3=O)c3ccc(S(=O)(=O)O)cc3C2(C)C)=[N+](CCCCCC(=O)NCCN2C(=O)CC([*:2])C2=O)c2ccc(S(=O)(=O)[O-])cc21

In turn, “I: Ac-KNPPDIVGKTSQVTLYVFEKVPTRYC-NH2 / II: Ac-KNPPDIVGKTSQVTLYVFEKVPTRYC-NH2 (linker I:26-II:26 via X1) [Cy5-(P0_101–125)2]” had a λex in H2O/PBS of 654 nm. In addition, at myelin protein zero (P0) (from KD values, p = 0.003), the “fold increase in affinity compared to Cy5-P0_101–125” value was 1.5 fold. For the same substance, on myelin protein zero (P0) (saturation binding fit, flow cytometry, RT4-D12 cells), the Nonspecific binding turned out to be 0.022. This substance also returned a Kd on myelin protein zero (P0) (saturation binding, flow cytometry, RT4-D12 Schwannoma cells, 0–2000 nM tracer in 0.1% BSA in PBS, 1 h at 4 °C, triplicate, One site—Total fit) of 70.3 nM. This substance also showed a free fraction (fraction unbound) with serum protein of 0.37. Besides, in the data set with RT4-D12 Schwannoma cells (P0 expressing Schwannoma cells, equal staining at 4-fold lower concentration), the “fold increase in staining efficiency compared to Cy5-P0_101–125” value is on record as approximately 4 fold. In addition, the “higher fluorescence signal intensity compared to Cy5-P0_101–125 at the same concentration, range” value in the data set with RT4-D12 Schwannoma cells (flow cytometry, tracer 5–1000 nM, RT4-D12 cells) is listed as 34–59%. Further, in the data set on RT4-D12 Schwannoma cells (flow cytometry, tracer 5–1000 nM, RT4-D12 cells, p < 0.00001), the “higher fluorescence signal intensity compared to Cy5-P0_101–125 at the same concentration, average” value is listed as 44%. The “Photobleaching, %” value in data set [1] stood at 71%. The Brightness in PBS in data set [2] was 49.2 M⁻¹ cm⁻¹. The substance further gave a λEm in H2O/PBS in data set [3] of 671 nm. For the same substance, the stokes shift in data set [4] is 17 nm. The logP in the data set “Lipophilicity logP(o/w)” was -0.57 ± 0.01.
